Measured values taken from US20080200454A1, “CARBON-LINKED TETRAHYDRO-PYRAZOLO-PYRIDINE MODULATORS OF CATHEPSIN S” (priority 2007, published 2008).
Where two headings read alike, the source gives them in different places.

Target: Recombinant human cathepsin S (CatS) (Homo sapiens, UniProt P25774)
Assay: Recombinant human cathepsin S (CatS) inhibition assay, fluorogenic substrate Z-Valine-Valine-Arginine-AMC;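 also: Baculovirus-expressed CatS in pH 5.0 sodium acetate buffer with DTT and NaCl, fluorescence read each minute over 20 min, inhibition derived from rate slope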

Sequence of Recombinant human cathepsin S (CatS) (P25774 115-331): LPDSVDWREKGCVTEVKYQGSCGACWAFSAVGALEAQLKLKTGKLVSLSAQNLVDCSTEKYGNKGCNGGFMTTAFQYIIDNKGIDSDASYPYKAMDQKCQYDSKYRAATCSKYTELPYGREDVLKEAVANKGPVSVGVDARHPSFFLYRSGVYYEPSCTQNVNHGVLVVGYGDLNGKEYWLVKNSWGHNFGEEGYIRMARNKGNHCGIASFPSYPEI

Row | IC50 | SMILES | IC50 (CatS IC50)
1 | – | CC(C)(C)OC(=O)N1CCc2ccc(C#Cc3cc(-c4nn(CCCN5CCC(C(N)=O)CC5)c5c4CN(S(C)(=O)=O)CC5)ccc3Cl)cc2C1 [Example 374, 1,1-Dimethylethyl 7-({5-[1-{3-[4-(aminocarbonyl)piperidin-1-yl]propyl}-5-(methylsulfonyl)-4,5,6,7-tetrahydro-1H-pyrazolo[4,3-c]pyridin-3-yl]-2-chlorophenyl}ethynyl)-3,4-dihydroisoquinoline-2(1H)-carboxylate] | 160 nM
2 | – | CS(=O)(=O)N1CCc2c(c(-c3ccc(Cl)c(C#Cc4ccc5c(c4)CCNCC5)c3)nn2CCCN2CCOCC2)C1 [Example 375, 7-({2-Chloro-5-[5-(methylsulfonyl)-1-(3-morpholin-4-ylpropyl)-4,5,6,7-tetrahydro-1H-pyrazolo[4,3-c]pyridin-3-yl]phenyl}ethynyl)-2,3,4,5-tetrahydro-1H-3-benzazepine] | 410 nM
3 | 1010 nM | CC(C)(C)OC(=O)NCc1cccc(C#Cc2cc(-c3nn(CCCN4CCOCC4)c4c3CN(S(C)(=O)=O)CC4)ccc2Cl)c1 [Example 376, 1,1-Dimethylethyl {[3-({2-chloro-5-[5-(methylsulfonyl)-1-(3-morpholin-4-ylpropyl)-4,5,6,7-tetrahydro-1H-pyrazolo[4,3-c]pyridin-3-yl]phenyl}ethynyl)phenyl]methyl}carbamate] | –
4 | – | CS(=O)(=O)N1CCc2c(c(-c3ccc(Cl)c(C#Cc4cccc(CN)c4)c3)nn2CCCN2CCOCC2)C1 [Example 377, 1-[3-({2-Chloro-5-[5-(methylsulfonyl)-1-(3-morpholin-4-ylpropyl)-4,5,6,7-tetrahydro-1H-pyrazolo[4,3-c]pyridin-3-yl]phenyl}ethynyl)phenyl]methanamine] | 470 nM
5 | – | CC(C)(C)C1CCN(CCCn2nc(-c3ccc(Cl)c(C#Cc4ccc5c(c4)CNCC5)c3)c3c2CCN(S(C)(=O)=O)C3)CC1 [Example 378, 7-({2-Chloro-5-[1-{3-[4-(1,1-dimethylethyl)piperidin-1-yl]propyl}-5-(methylsulfonyl)-4,5,6,7-tetrahydro-1H-pyrazolo[4,3-c]pyridin-3-yl]phenyl}ethynyl)-1,2,3,4-tetrahydroisoquinoline] | 80 nM
6 | 290 nM | CS(=O)(=O)N1CCc2c(c(-c3ccc(Cl)c(C#Cc4cccc(CNCc5ccccc5)c4)c3)nn2CCCN2CCOCC2)C1 [Example 379, 1-[3-({2-Chloro-5-[5-(methylsulfonyl)-1-(3-morpholin-4-ylpropyl)-4,5,6,7-tetrahydro-1H-pyrazolo[4,3-c]pyridin-3-yl]phenyl}ethynyl)phenyl]-N-(phenylmethyl)methanamine] | –
7 | – | CS(=O)(=O)N1CCc2c(c(-c3ccc(Cl)c(C#Cc4ccc(CNCc5ccc(Cl)cc5)cc4)c3)nn2CCCN2CCN(C(=O)c3ccccc3)CC2)C1 [Example 380, 1-[4-({2-Chloro-5-[5-(methylsulfonyl)-1-{3-[4-(phenylcarbonyl)piperazin-1-yl]propyl}-4,5,6,7-tetrahydro-1H-pyrazolo[4,3-c]pyridin-3-yl]phenyl}ethynyl)phenyl]-N-[(4-chlorophenyl)methyl]methanamine] | 60 nM
8 | – | CS(=O)(=O)N1CCc2c(c(-c3ccc(Cl)c(C#Cc4ccc5c(c4)CNCC5)c3)nn2CCCN2CCCCC2)C1 [Example 381, 7-({2-Chloro-5-[5-(methylsulfonyl)-1-(3-piperidin-1-ylpropyl)-4,5,6,7-tetrahydro-1H-pyrazolo[4,3-c]pyridin-3-yl]phenyl}ethynyl)-1,2,3,4-tetrahydroisoquinoline] | 100 nM
9 | – | CS(=O)(=O)N1CCc2c(c(-c3ccc(Cl)c(C#Cc4ccc(CNCc5ccc(Cl)cc5)cc4)c3)nn2CCCN2CC[C@H](O)C2)C1 [Example 382, (3S)-1-{3-[3-(4-Chloro-3-{[4-({[(4-chlorophenyl)methyl]amino}methyl)phenyl]ethynyl}phenyl)-5-(methylsulfonyl)-4,5,6,7-tetrahydro-1H-pyrazolo[4,3-c]pyridin-1-yl]propyl}pyrrolidin-3-ol] | 110 nM
10 | – | CS(=O)(=O)N1CCc2c(c(-c3ccc(Cl)c(C#Cc4ccc(CNCc5ccc(Cl)cc5)cc4)c3)nn2CCCN2CC[C@@H](O)C2)C1 [Example 383, (3R)-1-{3-[3-(4-Chloro-3-{[4-({[(4-chlorophenyl)methyl]amino}methyl)phenyl]ethynyl}phenyl)-5-(methylsulfonyl)-4,5,6,7-tetrahydro-1H-pyrazolo[4,3-c]pyridin-1-yl]propyl}pyrrolidin-3-ol] | 120 nM
11 | 2790 nM | CC(C)(C)OC(=O)NCc1ccccc1C#Cc1cc(-c2nn(CCCN3CCOCC3)c3c2CN(S(C)(=O)=O)CC3)ccc1Cl [Example 384, 1,1-Dimethylethyl {[2-({2-chloro-5-[5-(methylsulfonyl)-1-(3-morpholin-4-ylpropyl)-4,5,6,7-tetrahydro-1H-pyrazolo[4,3-c]pyridin-3-yl]phenyl}ethynyl)phenyl]methyl}carbamate] | –
12 | – | CS(=O)(=O)N1CCc2c(c(-c3ccc(Cl)c(C#Cc4ccccc4CN)c3)nn2CCCN2CCOCC2)C1 [Example 385, 1-[2-({2-Chloro-5-[5-(methylsulfonyl)-1-(3-morpholin-4-ylpropyl)-4,5,6,7-tetrahydro-1H-pyrazolo[4,3-c]pyridin-3-yl]phenyl}ethynyl)phenyl]methanamine] | 2720 nM
13 | – | CS(=O)(=O)N1CCc2c(c(-c3ccc(Cl)c(C#Cc4ccccc4CNCc4ccccc4)c3)nn2CCCN2CCOCC2)C1 [Example 386, 1-[2-({2-Chloro-5-[5-(methylsulfonyl)-1-(3-morpholin-4-ylpropyl)-4,5,6,7-tetrahydro-1H-pyrazolo[4,3-c]pyridin-3-yl]phenyl}ethynyl)phenyl]-N-(phenylmethyl)methanamine] | 770 nM
14 | – | CS(=O)(=O)N1CCc2c(c(-c3ccc(Cl)c(C#Cc4ccc(CNCc5ccc(Cl)cc5)cc4)c3)nn2CCCN2CCN(C3CC3)CC2)C1 [Example 388, 1-{4-[(2-Chloro-5-{1-[3-(4-cyclopropylpiperazin-1-yl)propyl]-5-(methylsulfonyl)-4,5,6,7-tetrahydro-1H-pyrazolo[4,3-c]pyridin-3-yl}phenyl)ethynyl]phenyl}-N-[(4-chlorophenyl)methyl]methanamine] | 60 nM
15 | 230 nM | CS(=O)(=O)N1CCc2c(c(-c3ccc(Cl)c(C#Cc4ccc(CNCc5ccc(Cl)cc5)cc4)c3)nn2CCCN2CCOC(CO)C2)C1 (stereo not drawn) [Example 389] | –
16 | – | CC(C)(C)OC(=O)N1CCCN(CCCn2nc(-c3ccc(Cl)c(C#Cc4ccc(CNCc5ccc(Cl)cc5)cc4)c3)c3c2CCN(S(C)(=O)=O)C3)CC1 [Example 390, 1,1-Dimethylethyl 4-{3-[3-(4-chloro-3-{[4-({[(4-chlorophenyl)methyl]amino}methyl)phenyl]ethynyl}phenyl)-5-(methylsulfonyl)-4,5,6,7-tetrahydro-1H-pyrazolo[4,3-c]pyridin-1-yl]propyl}-1,4-diazepane-1-carboxylate] | 150 nM
17 | – | CS(=O)(=O)N1CCc2c(c(-c3ccc(Cl)c(C#Cc4ccc(CNCc5ccc(Cl)cc5)cc4)c3)nn2CCCN2CCCNCC2)C1 [Example 391, 1-{4-[(2-Chloro-5-{1-[3-(1,4-diazepan-1-yl)propyl]-5-(methylsulfonyl)-4,5,6,7-tetrahydro-1H-pyrazolo[4,3-c]pyridin-3-yl}phenyl)ethynyl]phenyl}-N-[(4-chlorophenyl)methyl]methanamine] | 260 nM
18 | – | CC(C)(C)OC(=O)N1Cc2ccc(C#Cc3cc(-c4nn(CCCN5CCOCC5)c5c4CN(S(C)(=O)=O)CC5)ccc3Cl)cc2C1 [Example 392, 1,1-Dimethylethyl 5-({2-chloro-5-[5-(methylsulfonyl)-1-(3-morpholin-4-ylpropyl)-4,5,6,7-tetrahydro-1H-pyrazolo[4,3-c]pyridin-3-yl]phenyl}ethynyl)-1,3-dihydro-2H-isoindole-2-carboxylate] | 180 nM
19 | – | CS(=O)(=O)N1CCc2c(c(-c3ccc(Cl)c(C#Cc4ccc5c(c4)CNC5)c3)nn2CCCN2CCOCC2)C1 [Example 393, 3-[4-Chloro-3-(2,3-dihydro-1H-isoindol-5-ylethynyl)phenyl]-5-(methylsulfonyl)-1-(3-morpholin-4-ylpropyl)-4,5,6,7-tetrahydro-1H-pyrazolo[4,3-c]pyridine] | 220 nM
20 | 3810 nM | CS(=O)(=O)N1CCc2c(c(-c3ccc(Cl)c(C#Cc4cnc5c(c4)CNCC5)c3)nn2CCCN2CCOCC2)C1 [Example 394, 3-({2-Chloro-5-[5-(methylsulfonyl)-1-(3-morpholin-4-ylpropyl)-4,5,6,7-tetrahydro-1H-pyrazolo[4,3-c]pyridin-3-yl]phenyl}ethynyl)-5,6,7,8-tetrahydro-1,6-naphthyridine] | –
21 | 20 nM | CS(=O)(=O)N1CCc2c(c(-c3ccc(Cl)c(CCc4ccc(CNCc5ccc(Cl)cc5)cc4)c3)nn2CCCN2CCN(c3ccccc3)CC2)C1 [Example 395, 1-{4-[2-(2-Chloro-5-{5-(methylsulfonyl)-1-[3-(4-phenylpiperazin-1-yl)propyl]-4,5,6,7-tetrahydro-1H-pyrazolo[4,3-c]pyridin-3-yl}phenyl)ethyl]phenyl}-N-[(4-chlorophenyl)methyl]methanamine] | –
22 | 230 nM | CS(=O)(=O)N1CCc2c(c(-c3ccc(Cl)c(C#Cc4ccc5c(c4)CN(C4CC4)CC5)c3)nn2CCCN2CCOCC2)C1 [Example 396, 7-({2-Chloro-5-[5-(methylsulfonyl)-1-(3-morpholin-4-ylpropyl)-4,5,6,7-tetrahydro-1H-pyrazolo[4,3-c]pyridin-3-yl]phenyl}ethynyl)-2-cyclopropyl-1,2,3,4-tetrahydroisoquinoline] | –
23 | – | CS(=O)(=O)N1CCc2c(c(-c3ccc(Cl)c(C#Cc4ccc(CNCc5ccc(Cl)cc5)cc4)c3)nn2CCCN2CCNC(=O)C2)C1 [Example 397, 4-{3-[3-(4-Chloro-3-{[4-({[(4-chlorophenyl)methyl]amino}methyl)phenyl]ethynyl}phenyl)-5-(methylsulfonyl)-4,5,6,7-tetrahydro-1H-pyrazolo[4,3-c]pyridin-1-yl]propyl}piperazin-2-one] | 510 nM
24 | – | CS(=O)(=O)N1CCc2c(c(-c3ccc(Cl)c(C#Cc4ccc(CNCc5ccc(Cl)cc5)cc4)c3)nn2CCCN2CCS(=O)(=O)CC2)C1 [Example 398, 1-{4-[(2-Chloro-5-{1-[3-(1,1-dioxidothiomorpholin-4-yl)propyl]-5-(methylsulfonyl)-4,5,6,7-tetrahydro-1H-pyrazolo[4,3-c]pyridin-3-yl}phenyl)ethynyl]phenyl}-N-[(4-chlorophenyl)methyl]methanamine] | 380 nM
